Usually ED50 stands for the dose at which the effect has come halfway, by size or by number of responders.

The text below walks through data of patent EP1038880B1, “Androstanes and pregnanes for allosteric modulation of GABA receptor” (priority 1994, dated 1995).

Data set [1] concerns N.I.H. Swiss-Webster mice. The experiment in a line: Light/dark transition test. Particulars: IP, 10 min test, vs control, Dunnett's t-test (Fig. 8). It is filed as in vivo.
Procedure: Male N.I.H. Swiss-Webster mice (Harlan, Harlan, Indianapolis, IN) weighing 15-20 g were housed four per cage in polyethylene cages with sawdust bedding. The colony room was environmentally controlled (22°C) with a hr light/dark cycle (0600-1800hr). Food and water were available ad libitum, except during testing. The experiments were run from 0700-1500 hr and groups were counterbalanced for time of day effects. Mice were only administered drug or vehicle once.
The apparatus included two 2-compartment automated test chambers (Model RXYZCM16, Omnitech Electronics, Columbus, OH). The open compartment was connected to the enclosed compartment via a 7.5 × 7.5 cm passageway. The open compartment was brightly lit using a 200 W incandescent light bulb. The experimental room was kept dark. Interruptions of the infrared beams in either chamber were automatically recorded by being linked to a computer through a Digiscan Analyzer (Omnitech and the data was analyzed using the Integrated Lab Animal Monitoring System (Omnitech Electronics). N.IH. Swiss-Webster mice were administered vehicle or test drug intraperiotoneally (IP),10 min later they were placed in the center of the lit compartment. The number of transitions between the lit and dark chambers, total activity in the lit chamber and the time spent in the lit chamber were measured during a 10 min test period.
Data set [2] relates to Sprague-Dawley rats. The data set can be described thus: Geller-Seifter conflict test. The class given is in vivo. Particulars: subcutaneous administration (Figure 10). The text has this: This animal model of human anxiety utilizes a conditioned state of conflict in rats to ascertain the anxiolytic properties of drugs. […] The first includes bar pressing under a variable […] schedule without punishment. The second component is a fixed ratio schedule with each bar press resulting in a positive reinforcement and a punishment. The punished component produces a state of conflict within the animal. […] An anxiolytic response would increase the punished responding without affecting the unpunished responding.
Rats were housed individually under a 12-hour light-dark cycle with lights on from 0700-1900.
Rats were trained in test chambers (Coulbourn instruments) with a lever mounted in one wall, a small dipper that delivered the 0.1-mL milk reward (1 part Eagle condensed : milk 2 parts water), and a metal grid floor through which the foot-shock punishment was administered. A DEC PDP 11/73 minicomputer nmning SKED (State Systems) was used for programming and recording.
Rates initially learned to respond on a continuous reinforcement schedule and progressed rapidly to 30-sec, 1-min, and 2-min variable interval (VI) schedules. On the continuous reinforcement schedule, rats received milk reward following every lever press; on the VI schedules, milk rewards were available at infrequent and variable intervals, eventually at an average of once every 2 min. […] During conflict periods, which were signalled by the presentation of a light and a tone, the continuous reinforcement schedule was again in force and each lever press delivered both a milk reward and a brief ([…]) foot-shock Shock intensity was 0.2 mA initially, and.was increased daily in increments of 0.02 mA in order to gradually suppress lever pressing to 5 responses or less per conflict period. […] Drug-induced increases in the rate of punished responses were taken as an index of antianxiety activity, while decreases in the rate of unpunished responses were taken as an index of response depression or sedation.

For data set [3], the system named is tonic seizure. The experiment in a line: Maximal electroshock test. The class given is in vivo. Particulars: Mus musculus, ip, steroids i.p., mice. As for the experimental part: (§1) The anticonvulsant tests are similar to that described above. […] The number of animals with tonic and/or clonic convulsions was recorded. In the maximal electroshock test, 50 mA of current at 60 Hz was delivered through corneal electrodes for 200 msec to induce tonic seizure. The ability of compounds to abolish the tonic component was defined as the endpoint. General CNS depression potential was determined by a rotorod test 10 minutes after the injection of compounds where the number of mice staying on a rotating (6 rpm) rod for 1 minute in one of the three trials was determined. […] Table 7. Anticonvulsant Activity of Exemplified Neuroactive Steroids and those of Selected Clinically Useful Anticonvulsants in Mice
A general note: In the maximal electroshock model the usual endpoint is tonic extension of the hind limbs.

Data set [4] has as its system N.I.H. Swiss-Webster mice. The data set can be described thus: Elevated plus-maze. It is filed as in vivo. Particulars: 5 min test, ten minutes after injection (Fig. 9A).
The test system of data set [5] is picrotoxin. The data set can be described thus: Anticonvulsant test against picrotoxin. It is filed as in vivo, mice. Particulars: Mus musculus, read-out: ED50 PICRO. How it is done: as §1
Data set [6] is described as follows: Rotorod test (general CNS depression potential). Particulars: mouse, in vivo, ip. How it is done:
as §1
(Falling from the rotarod earlier than controls is read as motor impairment.)

The structures appear in SMILES notation.

`CC(=O)[C@H]1CC[C@H]2[C@@H]3CC[C@H]4C[C@H](O)CC[C@]4(C)[C@H]3CC[C@]12C` [3α-Hydroxy-5α-pregnan-20-one, 3α-hydroxy-5α-pregnan-20-one]: the “number of transitions between the dark box and the light box, in words” value in data set [1] was “significantly increased”. The “dose of peak effect on rate of punished responses” value in data set [2] is 4.4 mg/kg. The ED50 in data set [3] was 28.6 mg/kg; in data set [5] it was 10.2 mg/kg. The “dose producing significant increase in entries into the open-arms” value in data set [4] was 20 mg/kg.
In turn, `C[C@]12CC[C@@H](O)C[C@@H]1CC[C@@H]1[C@@H]2CC[C@]2(C)[C@@H](C(=O)CO)CC[C@@H]12` [3α,21-dihydroxy-5α-pregnan-20-one] came in with an ED50 at 10 min in data set [6] of 22.9 mg/kg. Further, the ED50 in data set [3] worked out at 26.7 mg/kg; in data set [5], 5.6 mg/kg.
